This note sets out measurements from patent publication US9732151B2, “Biomarkers for TSLP treatment” (Merck Sharp & Dohme Corp., priority 2011, dated 2017).

Assay [1] deals with biomarker genes in skin of TSLPR KO mice. The experiment in a line: Calcipotriol skin inflammation in TSLPR KO mice, real-time PCR of skin mRNA. It is filed as in vivo. Conditions: calcipotriol vs ethanol. The procedure:
Mice: Six- to eight-week-old Balb/c were obtained from Jackson Labs (Bar Harbour, Me.). TSLPR KO mice were obtained from Dr. W. Leonard, NIH, Bethesda, Md. (Al Shami et al., J. Exp. Med. 200:159-168 (2004). Age-matched males were used for the time-course study and females for two efficacy studies. Vitamin D Induced Skin Inflammation: The vitamin D analogue, calcipotriol (Tocris, Ellisville, Mo.), was dissolved in ethanol and was applied daily to both sides of the ears at a final concentration of 2 nmol/ear. Control animals were given ethanol only. Ear swelling was measured daily using an engineer's pressure gauge (Peacock, Japan) and blood was collected. The blood was spun at 10.000 rpm for 5 minutes to separate the serum, which was frozen at -80 C. until analyzed by ELISA. Calcipotriol applications were stopped on day 8 (Balb/c mice), ears were harvested and fixed in 10% formalin for pathological evaluation or frozen directly in liquid nitrogen for mRNA extraction. […] Similarly, real-time PCR was conducted on mRNA extracted from skin tissue of TSLPR KO mice treated with either ethanol (vehicle control) or calcipotriol.

In assay [2] the test system is biomarker genes in skin of calcipotriol treated mice. The experiment in a line: Vitamin D (calcipotriol) induced skin inflammation, real-time PCR of skin mRNA, +/- anti-TSLP. In kind it is in vivo, mice (Balb/c). The note with it: calcipotriol 2 nmol/ear daily, skin at day 8 (FIG. 5). Here is the method: Vitamin D Induced Skin Inflammation: The vitamin D analogue, calcipotriol (Tocris, Ellisville, Mo.), was dissolved in ethanol and was applied daily to both sides of the ears at a final concentration of 2 nmol/ear. Control animals were given ethanol only. Ear swelling was measured daily using an engineer's pressure gauge (Peacock, Japan) and blood was collected. The blood was spun at 10.000 rpm for 5 minutes to separate the serum, which was frozen at −80 C. until analyzed by ELISA. Calcipotriol applications were stopped on day 8 (Balb/c mice), ears were harvested and fixed in 10% formalin for pathological evaluation or frozen directly in liquid nitrogen for mRNA extraction.
Neutralization Experiments: mice were treated with 0.1, 0.4, 1, 4, 12, 40 and 120 mgs per kg (mpk) of a rat anti-mouse TSLP antibody (designated “22E5”) subcutaneously (s.c.) one day (d−1) prior to VitD3 treatment. Control mice received isotype antibody at 4 and 40 mpk. The mice were sacrificed at day 8.
Real-time PCR was conducted on mRNA extracted from skin tissue of mice treated with calcipotriol in the absence or the presence of an antagonistic anti-TSLP antibody or an isotype control
On the technique in general: Quantitative PCR measures a nucleic acid by following its amplification.

Assay [3] relates to biomarker genes in lung tissue of TSLP Tg mice. Nature of the assay: qRT-PCR of biomarker genes in lung tissue, steroid-treated TSLP Tg mice. It is filed as in vivo. Here is the method:
TSLP Tg mice, on the BALB/c background, were obtained from the laboratory of Steven Ziegler. Zhou et al., Nat. Immunol. 6:1047-53 (2005). Non-transgenic littermates served as control mice. BALB/c mice (for ovalbumin (OVA)-induced asthma experiments) were purchased from the Jackson Laboratory. The standard model of OVA-induced asthma described below was used. In dexamethasone-treatment experiments, 12 week-old TSLP Tg mice were injected i.p. daily for 2 weeks with 2 mg/kg dexamethasone 21-phosphate disodium salt (Sigma) in sterile PBS, or with sterile PBS alone as a control. Colonies were maintained in a specific pathogenic-free environment.
Harvest of murine BAL fluid, BAL cells, and lung tissue: BAL fluid was isolated by washing the lung (through the trachea) with 1mL of PBS. Lavage fluid was kept on ice and centrifuged at 400g for 5 min. The supernatant was frozen for cytokine analysis, and the cell pellet was resuspended in 1mL of PBS for total viable cell count by Vi-CELL ([…]) and cell differentials by cytospin. Slides were air-dried, fixed with 95% ethanol, and stained with Wright-Giemsa (Sigma-Aldrich). A minimum of 200 cells were counted under the microscope per slide for cell differentials. The postcaval lung lobe and BAL cells were collected and snap-frozen in liquid nitrogen for qRT-PCR analysis as described previously for tissue (Chan et al., J. Exp. Med. 203:2577-87 (2006)) and below for BAL cells. The single left lung lobe was excised for histology and clinical scoring as described below.
(§1) mRNA isolation from BAL cells and qRT-PCR: Total RNA was isolated from BAL cells using the RNeasy method (Qiagen, Valencia, Calif.) and reverse-transcribed using WT-OVATION ® (chemicals, assays, and reagents for nucleic acid sequence amplification, sequencing and sequence analysis and detection) Pico System (NuGen Technologies, San Carlos Calif.). Primers were designed using Primer Express software (Applied Biosystem, Foster City, Calif.) or obtained commercially from Applied Biosystems (ABI). qRT-PCR was performed on 10 ng of cDNA from each sample as described previously. Chan et al., J. Exp. Med. 203:2577-87 (2006).

For assay [4], the system named is biomarkers in BAL fluid or cell mRNA. Nature of the assay: Table VIII summary: biomarkers down with steroids in BAL fluid or BAL cell mRNA. It is filed as in vivo, mice.
Description: as §1
Western blot analysis of BAL fluid samples: Western blot analysis was performed on BAL fluid samples. 200 uL of each BAL fluid sample was acetone precipitated in 4 volumes of cold acetone overnight and resuspended in 1× NUPAGE® (chemical preparations used for life sciences research) LDS sample loading buffer. An equal amount was separated on a 4-12% NUPAGE® (chemical preparations used for life sciences research) gels, and gels were electroblotted onto PVDF membranes overnight at 10V in NUPAGE® (chemical preparations used for life sciences research) transfer buffer. Membranes were blocked in 5% fat-free milk in TBS/T (10mM TrisHC1 pH 7.5, 100 mM NaC1, 0.1% TWEEN® 20 (polysorbate 20)) for 1 hour and incubated with specific antibodies according to the manufacturer's instructions in 1% milk in TBS/T for another 2 hours. Blots were incubated with HRP-labeled secondary antibodies (chicken anti-goat) IgG, R&D Systems, Minneapolis, Minn. or donkey anti-rabbit Ig-G, GE Healthcare, Piscataway, N.J.) in 1% milk in TB S/T for another hour and detection was performed with ECL+(GE Healthcare). Primary antibodies used included anti-mouse LCN2, anti-mouse sICAM-1, anti-human sICAM-1 (for monkey studies), anti-mouse GP-39, anti-mouse YM1, and anti-mouse pIgR (all from R&D Systems); and anti-mouse UG, anti-mouse AMCase, anti-human AMCase (for monkey studies), anti-mouse CLCA3, and anti-human CLCA1 (for monkey studies) (all from Santa Cruz Biotechnology, Santa Cruz, Calif.). Polyclonal anti-mouse Reg3γ was generated at Schering-Plough Biopharma. After autoradiography visualization, membranes were dried and scanned on a Typhoon 9400 (GE Healthcare) for ECL+(457 nm excitation and 520BP40 emission). Image analysis was conducted using ImageQuant v5.2 (GE Healthcare) and band intensity reported as sum of pixel values above background.
ELISAs: Mouse LCN2, GP-39, sICAM-1, and YM1 proteins were quantified using QUANTIKINE® (in vitro immunoassay kits) or DUOSET® (biological reagents for use in research applications to identify cytokines by immunoassay) ELISA kits (R&D Systems) using a Vmax spectrophotometer with SoftMax Pro software (Molecular Devices); mouse IL-4, IL-5, and IL-13 were measured using a Luminex 100 machine with LINCOPLEX® (panels for taking immunoassay measurements and testing cytokine and endocrine hormones) multiplex kits (Millipore) and analyzed with MasterPlex software (Miraibio). Monkey YKL-40 was quantified via ELISA (Quidel), analyzed as above.

The subject of assay [5] is biomarker proteins in BAL fluid of HDMA-challenged monkeys. Nature of the assay: BAL fluid biomarkers (western blot, ELISA) in HDMA-challenged monkeys before and after corticosteroid therapy. It is filed as in vivo, cynomolgus macaques (Macaca fascicularis). (Immunoblotting shows a protein as a band on a membrane.)
Description: Western blot analysis of BAL fluid samples: Western blot analysis was performed on BAL fluid samples. 200 uL of each BAL fluid sample was acetone precipitated in 4 volumes of cold acetone overnight and resuspended in 1× NUPAGE® (chemical preparations used for life sciences research) LDS sample loading buffer. An equal amount was separated on a 4-12% NUPAGE® (chemical preparations used for life sciences research) gels, and gels were electroblotted onto PVDF membranes overnight at 10V in NUPAGE® (chemical preparations used for life sciences research) transfer buffer. Membranes were blocked in 5% fat-free milk in TBS/T (10mM TrisHC1 pH 7.5, 100 mM NaC1, 0.1% TWEEN® 20 (polysorbate 20)) for 1 hour and incubated with specific antibodies according to the manufacturer's instructions in 1% milk in TBS/T for another 2 hours. Blots were incubated with HRP-labeled secondary antibodies (chicken anti-goat) IgG, R&D Systems, Minneapolis, Minn. or donkey anti-rabbit Ig-G, GE Healthcare, Piscataway, N.J.) in 1% milk in TB S/T for another hour and detection was performed with ECL+(GE Healthcare). Primary antibodies used included anti-mouse LCN2, anti-mouse sICAM-1, anti-human sICAM-1 (for monkey studies), anti-mouse GP-39, anti-mouse YM1, and anti-mouse pIgR (all from R&D Systems); and anti-mouse UG, anti-mouse AMCase, anti-human AMCase (for monkey studies), anti-mouse CLCA3, and anti-human CLCA1 (for monkey studies) (all from Santa Cruz Biotechnology, Santa Cruz, Calif.). […] After autoradiography visualization, membranes were dried and scanned on a Typhoon 9400 (GE Healthcare) for ECL+(457 nm excitation and 520BP40 emission). Image analysis was conducted using ImageQuant v5.2 (GE Healthcare) and band intensity reported as sum of pixel values above background.
At this time, animals were challenged with nebulized HDMA (1 to 2500 AU/mL for 4 minutes) at a concentration that induced an early asthmatic response, defined as a 100% increase in lung resistance, 40% decrease in dynamic compliance, or decline in arterial oxygen saturation to ≦70%. Airway inflammation and reactions to nebulized histamine and methacholine 24 hours after allergen challenge were measured periodically to confirm chronic asthmatic responses. Wardle-Fick methods were used to obtain BAL fluid. BAL cells were then separated from the fluid phase. […] In corticosteroid treatments experiments, animals were challenged with HDMA and BAL fluid was collected 24 hours later (“Pre”).
For the next assay, the system named is HDMA-challenged monkeys. Nature of the assay: Asthma symptoms in HDMA-induced asthma in nonhuman primates after corticosteroid treatment. In kind it is in vivo, cynomolgus macaques (Macaca fascicularis). The note with it: high-dose corticosteroids for 2 weeks, data not shown. The text has this: House mite allergen (HDMA)-induced asthma in nonhuman primates: Juvenile macaques (Cynomolgus fascicularis, 30 to 42 months of age) were purchased from Alphagenesis (Yemassee, S.C.). Animals were sensitized to HDMA over a 7.5 month period by intraperitoneal injection of 312 AU Dermatophagoides pteronyssinus extract (Greer Laboratories, Lenoir, N.C.) absorbed to IMJECT® (reagents used in connection with enhancing immune responses) Alum (Pierce, Rockford, Ill.) administered every two weeks until HDMA-specific IgE titers approached levels in control allergic serum, and then at 4-week intervals until aeroallergen challenge. At this time, animals were challenged with nebulized HDMA (1 to 2500 AU/mL for 4 minutes) at a concentration that induced an early asthmatic response, defined as a 100% increase in lung resistance, 40% decrease in dynamic compliance, or decline in arterial oxygen saturation to ≦70%. Airway inflammation and reactions to nebulized histamine and methacholine 24 hours after allergen challenge were measured periodically to confirm chronic asthmatic responses. Wardle-Fick methods were used to obtain BAL fluid. BAL cells were then separated from the fluid phase. Mass spectrometry compared BAL fluid from sensitized animals before and after HDMA challenge. In corticosteroid treatments experiments, animals were challenged with HDMA and BAL fluid was collected 24 hours later (“Pre”). Animals then received weekly doses of methylprednisolone succinate (4.5 mg/kg intramuscularly) for two weeks, followed by a single dose of methylprednisolone acetate (10 mg/kg […].) one week later at the time of allergen challenge. BAL fluid was collected 24 hours following challenge (“Post”). Animal husbandry was conducted under USDA guidelines. All protocols were approved by the Institutional Animal Care and Use Committee of East Carolina University.

As for `C=C1/C(=C\C=C2/CCC[C@]3(C)[C@@H]([C@H](C)/C=C/[C@@H](O)C4CC4)CC[C@@H]23)C[C@@H](O)C[C@@H]1O` [calcipotriol], the “EAR11, MMP12, and YM2 mRNA in skin” value in assay [1] is “not upregulated”. For the same molecule, the “upregulation of EAR11, MMP12, LCN2, YM1, YM2, YKL-40, Reg3 g, PGLYRP1, CD44 mRNA in skin” value in assay [2] was not below 2 fold.
Turning to `C[C@@H]1C[C@H]2[C@@H]3CCC4=CC(=O)C=C[C@]4(C)[C@@]3(F)[C@@H](O)C[C@]2(C)[C@@]1(O)C(=O)CO` [Steroids, dexamethasone], in assay [3], the “Down with Steroids (Lung Tissue): CLCA3” value is “— (a dash indicates a biomarker not reduced upon treatment)”, the “Down with Steroids (Lung Tissue): Chi3l4 (YM2)” value is recorded as “— (a dash indicates a biomarker not reduced upon treatment)”, the “Down with Steroids (Lung Tissue): ECP (Ear11)” value is on record as “— (a dash indicates a biomarker not reduced upon treatment)” and the “Down with Steroids (Lung Tissue): FCGBP” value is “— (a dash indicates a biomarker not reduced upon treatment)”. In assay [3], the “Down with Steroids (Lung Tissue): ICAM-1” value is “— (a dash indicates a biomarker not reduced upon treatment)”, the “Down with Steroids (Lung Tissue): LCN2” value is recorded as “— (a dash indicates a biomarker not reduced upon treatment)”, the “Down with Steroids (Lung Tissue): PGLYRP1” value is recorded as “— (a dash indicates a biomarker not reduced upon treatment)” and the “Down with Steroids (Lung Tissue): RETNLβ” value is listed as “— (a dash indicates a biomarker not reduced upon treatment)”. Also, in assay [3], the “Down with Steroids (Lung Tissue): Reg3γ” value is “— (a dash indicates a biomarker not reduced upon treatment)”. Moreover, in assay [4], the “Down with Steroids (BAL fluid or cell mRNA): AMCase (Chia)” value is listed as “— (a dash indicates a biomarker not reduced upon treatment)”, the “Down with Steroids (BAL fluid or cell mRNA): ECP (Ear11)” value was “— (a dash indicates a biomarker not reduced upon treatment)”, the “Down with Steroids (BAL fluid or cell mRNA): LTF” value is “— (a dash indicates a biomarker not reduced upon treatment)” and the “Down with Steroids (BAL fluid or cell mRNA): MMP12” value was “— (a dash indicates a biomarker not reduced upon treatment)”. For the same molecule, in assay [4], the “Down with Steroids (BAL fluid or cell mRNA): Reg3γ” value is listed as “— (a dash indicates a biomarker not reduced upon treatment)”.
Consider `C[C@H]1C[C@@H]2[C@H]([C@@H](O)C[C@@]3(C)[C@H]2CC[C@]3(O)C(=O)COC(=O)CCC(=O)O)[C@@]2(C)C=CC(=O)C=C12` [corticosteroid, methylprednisolone succinate], for which the “disease biomarkers in BAL fluid” value in assay [5] (HDMA-challenged monkeys, 2 weeks of corticosteroid therapy (FIG. 4)) is recorded as “Reduction”. For the same molecule, the “expression of LCN2, UG, pIgR, PAP, and CLCA1 in BAL fluid” value in assay [5] (Post vs Pre corticosteroid, trending downward, data not shown) was “not significantly reduced”. The “GP-39 in BAL fluid” value in assay [5] (by ELISA, Post vs Pre corticosteroid (FIG. 4B)) was “significantly reduced”. In addition, the “AMCase, sICAM-1, CLCA1 in BAL fluid” value in assay [5] (by western blot, Post vs Pre corticosteroid (FIG. 4A)) is recorded as “significantly reduced”. Besides, in the assay on HDMA-challenged monkeys, the airway eosinophil recruitment entry is on record as “reduced”, the asthma symptoms entry is listed as “reduced” and the lung function result is listed as “improved”.
